Assay results as given in ChEMBL document CHEMBL1201862, “PubChem BioAssay data set” (2004).
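Five compound concentrations were applied to cells in 96-well plates for 48 hours; endpoints were derived by simple linear interpolation of the resulting dose-response curve. The concentration for 50% growth inhibition is given as GI50.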 Activity calls are given as the source filed them. No stated cut-off is given here; in the data, active = GI50 up to about 1.1 µM and inactive = higher.

Legend:
Assay in all cases: DTP human tumour cell line panel, 48 h
CCRF-CEM = tested on: CCRF-CEM
HCC 2998 = tested on: HCC 2998
A549 = tested on: A549
MDA-MB-231 = tested on: MDA-MB-231
NCI-H23 = tested on: NCI-H23
SR = tested on: SR
K562 = tested on: K562
HOP-62 = tested on: HOP-62
SF-539 = tested on: SF-539
COLO 205 = tested on: COLO 205
EKVX = tested on: EKVX
HCT-116 = tested on: HCT-116
HCT-15 = tested on: HCT-15
HT-29 = tested on: HT-29
CAKI-1 = tested on: CAKI-1
SK-MEL-2 = tested on: SK-MEL-2
OVCAR-4 = tested on: OVCAR-4
HL-60 = tested on: HL-60
SNB-75 = tested on: SNB-75
UACC-257 = tested on: UACC-257

| Structure (SMILES) | GI50 (CCRF-CEM) | GI50 (HCC 2998) | GI50 (A549) | GI50 (MDA-MB-231) | GI50 (NCI-H23) | GI50 (SR) | GI50 (K562) | GI50 (HOP-62) | GI50 (SF-539) | GI50 (COLO 205) | GI50 (EKVX) | GI50 (HCT-116) | GI50 (HCT-15) [µM] | GI50 (HT-29) | GI50 (CAKI-1) | GI50 (SK-MEL-2) | GI50 (OVCAR-4) | GI50 (HL-60) | GI50 (SNB-75) | GI50 (UACC-257) |
| --- | --- | --- | --- | --- | --- | --- | --- | --- | --- | --- | --- | --- | --- | --- | --- | --- | --- | --- | --- | --- |
| O=C(CC(=O)N(C(=O)c1ccccc1)c1ccc(Cl)cc1)N/N=C\c1ccccc1O | 2.86 µM (inactive) | 33.6 µM (inactive) | 82 µM (inactive) | 12.9 µM (inactive) | 43.4 µM (inactive) | 29.4 µM (inactive) | > 100 µM (inactive) | 31.8 µM (inactive) | 36.1 µM (inactive) | 85.5 µM (inactive) | 37 µM (inactive) | 30.6 µM (inactive) | 53.1 | > 100 µM (inactive) | > 100 µM (inactive) | 45.1 µM (inactive) | > 100 µM (inactive) | > 100 µM (inactive) | 22.9 µM (inactive) | > 100 µM (inactive) |
| N[C@H](C(=O)O)[C@H]1ON=C(Cl)[C@@H]1O | 0.966 µM (active) | 1.15 µM (inactive) | 1.56 µM (inactive) | 12.2 µM (inactive) | 3.52 µM (inactive) | 1.73 µM (inactive) | 1.63 µM (inactive) | 2.13 µM (inactive) | 1.28 µM (inactive) | 0.59 µM (active) | 5.11 µM (inactive) | 2.36 µM (inactive) | 1.21 | 0.286 µM (active) | 1.77 µM (inactive) | 56.1 µM (inactive) | 29.3 µM (inactive) | 3.46 µM (inactive) | 26.2 µM (inactive) | 14.7 µM (inactive) |
| CC(=O)c1ccc(/N=N/c2ccc3nonc3c2N)cc1 | > 100 µM (inactive) | > 100 µM (inactive) | > 100 µM (inactive) | > 100 µM (inactive) | 26.9 µM (inactive) | > 100 µM (inactive) | > 100 µM (inactive) | > 100 µM (inactive) | > 100 µM (inactive) | > 100 µM (inactive) | 9.98 µM (inactive) | > 100 µM (inactive) | > 100 | > 100 µM (inactive) | > 100 µM (inactive) | > 100 µM (inactive) | > 100 µM (inactive) | > 100 µM (inactive) | 94.4 µM (inactive) | > 100 µM (inactive) |
| OCCN1CN(c2nc(N3CN(CCO)C3)nc(N3CN(CCO)C3)n2)C1 | 20.5 µM (inactive) | 19.5 µM (inactive) | 83.4 µM (inactive) | 19.8 µM (inactive) | 22.2 µM (inactive) | 11.2 µM (inactive) | 25.4 µM (inactive) | 19.3 µM (inactive) | 18.2 µM (inactive) | 28 µM (inactive) | 26.8 µM (inactive) | 18.6 µM (inactive) | 22.3 | 25.5 µM (inactive) | 22.5 µM (inactive) | 18.7 µM (inactive) | 30.6 µM (inactive) | 16 µM (inactive) | 23.1 µM (inactive) | 18.9 µM (inactive) |
| COc1cccc2cc(C(=O)O)c(=O)oc12 | > 100 µM (inactive) | > 100 µM (inactive) | > 100 µM (inactive) | > 100 µM (inactive) | > 100 µM (inactive) | > 100 µM (inactive) | > 100 µM (inactive) | > 100 µM (inactive) | > 100 µM (inactive) | > 100 µM (inactive) | > 100 µM (inactive) | > 100 µM (inactive) | > 100 | > 100 µM (inactive) | > 100 µM (inactive) | > 100 µM (inactive) | > 100 µM (inactive) | > 100 µM (inactive) | > 100 µM (inactive) | > 100 µM (inactive) |
| Nc1ccc([As](=O)(O)O)cc1 [ARSANILIC ACID] | > 100 µM (inactive) | > 100 µM (inactive) | > 100 µM (inactive) | > 100 µM (inactive) | > 100 µM (inactive) | > 100 µM (inactive) | > 100 µM (inactive) | > 100 µM (inactive) | > 100 µM (inactive) | > 100 µM (inactive) | > 100 µM (inactive) | > 100 µM (inactive) | > 100 | > 100 µM (inactive) | > 100 µM (inactive) | > 100 µM (inactive) | > 100 µM (inactive) | > 100 µM (inactive) | > 100 µM (inactive) | > 100 µM (inactive) |
